Experimental findings from patent US20250188030A1, “Biphenyl and Phenylpyridine Compounds” (Pfizer Inc., priority 2023, published 2025) are described below.

As a reminder, the IC50 is the concentration needed to halve the response being measured. A low value points to inhibition by little substance. As a reminder, the Ki is the equilibrium dissociation constant of an inhibitor or competing ligand from its target.

The structures appear in SMILES notation. Where two headings read alike, the source gives them in different places. Some results are limits rather than exact numbers.

The test system of one assay is MM.1S cells. Description: MM1.S 10 Day Proliferation Assay (CellTiter-Glo). Type of assay: cell-based, Human. The procedure: Human B lymphoblast cell line MM.1S was obtained from American Type Culture Collection (ATCC), Manassas, VA USA, Cat. MM.1S (ATCC® CRL-2974™). Cells were cultured in RPMI (Thermo Fisher Scientific/Gibco Life Technologies Cat. #111875-093) plus 10% (v/v) FBS (Thermo Fisher Scientific/Gibco Life Technologies Cat. #26140-079) and 1% Penicillin-Streptomycin (Thermo Fisher Scientific/Gibco Life Technologies Cat. #15070063) at 37° C. in 5% CO2.
MM1.S cells were trypsinized cell viability count performed, and cells suspended in complete media at 5,556 cells/ml. Cells were then seeded (90 μl/well) into a 96-well round black/clear bottom, ULA (Ultra-Low Attachment surface plate (Corning cat #4520) at a density of 500 cells/well. Cells were then incubated for 16 hours at 37° C. and 5% CO2. Compound dilution plates were prepared in 96-well, clear U-bottom, polypropylene plates (Corning 3365) in 100% DMSO at 10 mM stock concentration in duplicate wells, using a 10-point serial dilution (1:3 dilutions). Compounds were diluted to 1:100 in growth medium. Then 10 μl of diluted compounds were added to each well of the cell plates using a Beckman FX liquid handling system such that the highest compound concentration tested was 10 μM final, with a 0.1% final DMSO concentration in the total volume of 100 μl. Plates were incubated for 10 total days at 37° C. and 5% CO2. Fresh media containing compound was refreshed at 5 days treatment.
Finally, the treatment plates were removed from the incubator and 100 μl of CellTiter-Glo Luminescent reagent was added to each well, and plates were equilibrated in the dark for 30 minutes. Plates were read on the PHERAstar plate reader using the 96-well with Luminescent reading mode. IC50 values were calculated using a four-parameter fit with GraphPad Prism version 9.5.1 or in house modified IDBS ActivityBase data analyzing package.

The target of another assay is KAT2A (Homo sapiens (Human), UniProt Q92830). The assay is described as follows: KAT2A acetyltransferase biochemical assay (RapidFire mass spectrometry, AcCoA to CoA). To be noted: read-out: KAT2A Ki at 1 μM AcCoA, 5 μM H3 1-21 peptide, 0.5 nM KAT2A, 90-minute reaction.
A further assay relates to H3K9AC (HT1080 cells). The assay is described as follows: H3K9AC Sandwich ELISA Assay in HT1080 cells (KAT2A primary cell-based screening assay). Details: species or system Human. In short, it runs like this:
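Acetylated H3K9 quantified by luminescent sandwich ELISA (total H3 capture, H3K9ac detection) on HCl lysates of HT1080 cells. Cells had 24 h compound exposure at 37 °C, top concentration 10 µM, 10-point 3-fold series, 0.1% DMSO; IC50 from four-parameter fitting.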
For orientation: In an ELISA, binding on a coated surface is turned into a signal by an enzyme label.

Where [1] appears, read: Homo sapiens, HT-1080, H3K9AC sandwich ELISA.

Chain of KAT2A (Q92830 whole entry): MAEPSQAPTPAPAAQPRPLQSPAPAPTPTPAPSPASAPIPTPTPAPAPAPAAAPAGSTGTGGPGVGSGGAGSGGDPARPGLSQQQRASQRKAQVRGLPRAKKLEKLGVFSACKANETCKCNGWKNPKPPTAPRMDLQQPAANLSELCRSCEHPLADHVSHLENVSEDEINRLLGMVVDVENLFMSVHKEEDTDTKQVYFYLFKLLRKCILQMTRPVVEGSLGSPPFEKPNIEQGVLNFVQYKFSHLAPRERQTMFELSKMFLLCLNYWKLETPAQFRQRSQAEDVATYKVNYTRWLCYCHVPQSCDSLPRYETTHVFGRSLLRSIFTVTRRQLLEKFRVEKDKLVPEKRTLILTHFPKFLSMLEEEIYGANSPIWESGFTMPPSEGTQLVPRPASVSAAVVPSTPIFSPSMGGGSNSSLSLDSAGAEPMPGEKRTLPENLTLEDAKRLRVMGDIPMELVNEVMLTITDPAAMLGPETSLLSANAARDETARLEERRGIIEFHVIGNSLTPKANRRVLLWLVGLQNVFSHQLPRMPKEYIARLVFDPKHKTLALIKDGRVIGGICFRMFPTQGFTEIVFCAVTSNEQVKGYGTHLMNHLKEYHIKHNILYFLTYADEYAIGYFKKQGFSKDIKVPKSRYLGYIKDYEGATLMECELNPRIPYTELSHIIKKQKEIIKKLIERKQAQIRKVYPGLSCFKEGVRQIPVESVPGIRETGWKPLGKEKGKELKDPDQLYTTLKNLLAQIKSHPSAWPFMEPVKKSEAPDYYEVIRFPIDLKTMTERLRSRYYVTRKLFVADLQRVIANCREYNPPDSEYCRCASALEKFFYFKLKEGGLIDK

For the molecule `CC(C)c1ccccc1-c1c(CC(=O)O)cccc1O[C@@H]1CC[C@@H](NC(=O)[C@@H]2CC(C)(C)CN2C)C1` (atropisomer, axis not shown) [Example H4, [(1ψ)-2′-(propan-2-yl)-6-({(1R,3R)-3-[(1,4,4-trimethyl-L-prolyl)amino]cyclopentyl}oxy)[1,1′-biphenyl]-2-yl]acetic acid], the IC50 in the assay on MM.1S cells (Homo sapiens, MM1.S, 240 h) turned out to be 385 nM; in the assay on H3K9AC (HT1080 cells) (setting [1]) it was 112 nM. Further, the Ki on KAT2A stood at 42.8 nM.

Consider `CN1CC(C)(C)C[C@H]1C(=O)N[C@@H]1CC[C@@H](Oc2cccc(CC(=O)NS(C)(=O)=O)c2-c2ccccc2C2CCC2)C1` (atropisomer, axis not shown) [Example I4, N-[(1R,3R)-3-{[(1ψ)-2′-cyclobutyl-6-{2-[(methanesulfonyl)amino]-2-oxoethyl}[1,1′-biphenyl]-2-yl]oxy}cyclopentyl]-1,4,4-trimethyl-L-prolinamide], for which the IC50 with MM.1S cells (Homo sapiens, MM1.S, 240 h) turned out to be 249 nM; in the assay with H3K9AC (HT1080 cells) (H3K9AC sandwich ELISA), 23.2 nM. Moreover, the Ki on KAT2A was 24.2 nM.

With `CN1CC(C)(C)C[C@H]1C(=O)N[C@@H]1CC[C@@H](Oc2cccc(CC(=O)NS(N)(=O)=O)c2-c2ccccc2C2CCC2)C1` (atropisomer, axis not shown) [Example I5, N-[(1R,3R)-3-({(1ψ)-2′-cyclobutyl-6-[2-oxo-2-(sulfamoylamino)ethyl][1,1′-biphenyl]-2-yl}oxy)cyclopentyl]-1,4,4-trimethyl-L-prolinamide], the IC50 with MM.1S cells (Homo sapiens, MM1.S, 240 h) stood at 88.7 nM; with H3K9AC (HT1080 cells) (setting [1]), 59 nM. The Ki on KAT2A was 13.6 nM.

For `CN1CC2(CCCC2)C[C@H]1C(=O)N[C@@H]1CC[C@@H](Oc2cccc(C(=O)NS(C)(=O)=O)c2-c2cccc(F)c2C2CCC2)C1` (atropisomer, axis not shown) [Example I10, (3ξ)-N-[(1R,3R)-3-({(1ψ)-2′-cyclobutyl-3′-fluoro-6-[(methanesulfonyl)carbamoyl][1,1′-biphenyl]-2-yl}oxy)cyclopentyl]-2-methyl-2-azaspiro[4.4]nonane-3-carboxamide], the IC50 in the assay on MM.1S cells (Homo sapiens, MM1.S, 240 h) is 359 nM; in the assay with H3K9AC (HT1080 cells) (setting [1]), 63.8 nM. In addition, the Ki at KAT2A amounted to 6.29 nM.

Consider `CN1CC(C)(C)C[C@H]1C(=O)N[C@@H]1CC[C@@H](Oc2cccc(C(=O)NS(=O)(=O)N3CCC3)c2-c2cccc(F)c2C2CCC2)C1` (atropisomer, axis not shown) [Example I13, N-[(1R,3R)-3-({(1ψ)-6-[(azetidine-1-sulfonyl)carbamoyl]-2′-cyclobutyl-3′-fluoro[1,1′-biphenyl]-2-yl}oxy)cyclopentyl]-1,4,4-trimethyl-L-prolinamide], for which the IC50 worked out at 238 nM in the assay on MM.1S cells (Homo sapiens, MM1.S, 240 h) and 24.5 nM in the assay on H3K9AC (HT1080 cells) (setting [1]). For the same molecule, at KAT2A, the Ki is 25 nM.

In the case of `CCN(C)S(=O)(=O)NC(=O)c1cccc(O[C@@H]2CC[C@@H](NC(=O)[C@@H]3CC(C)(C)CN3C)C2)c1-c1cccc(F)c1C1CCC1` (atropisomer, axis not shown) [Example I14, N-[(1R,3R)-3-{[(1ψ)-2′-cyclobutyl-6-{[ethyl(methyl)sulfamoyl]carbamoyl}-3′-fluoro[1,1′-biphenyl]-2-yl]oxy}cyclopentyl]-1,4,4-trimethyl-L-prolinamide], the IC50 with MM.1S cells (Homo sapiens, MM1.S, 240 h) worked out at 69.3 nM; with H3K9AC (HT1080 cells) (setting [1]), 18.1 nM. On KAT2A, the Ki is 33.9 nM.

For `CC(C)S(=O)(=O)NC(=O)Cc1cccc(O[C@@H]2CC[C@@H](NC(=O)[C@@]3(F)CNC4(CCC4)C3)C2)c1-c1cccc(F)c1C1CCC1` (atropisomer, axis not shown) [Example I16, (7S)-N-[(1R,3R)-3-({(1ψ)-2′-cyclobutyl-3′-fluoro-6-[2-oxo-2-(propane-2-sulfonamido)ethyl][1,1′-biphenyl]-2-yl}oxy)cyclopentyl]-7-fluoro-5-azaspiro[3.4]octane-7-carboxamide], the half-maximal inhibitory concentration (IC50) in the assay on MM.1S cells (Homo sapiens, MM1.S, 240 h) was determined as 31.1 nM; in the assay with H3K9AC (HT1080 cells) (H3K9AC sandwich ELISA), 5.8 nM. Besides, the Ki on KAT2A was found to be 0.03 nM.

Turning to `CN(C)S(=O)(=O)NC(=O)Cc1cccc(O[C@@H]2CC[C@@H](NC(=O)[C@@]3(F)CNC4(CCC4)C3)C2)c1-c1cccc(F)c1C1CCC1` (atropisomer, axis not shown) [Example I17, (7S)-N-[(1R,3R)-3-({(1ψ)-2′-cyclobutyl-6-[2-(dimethylsulfamamido)-2-oxoethyl]-3′-fluoro[1,1′-biphenyl]-2-yl}oxy)cyclopentyl]-7-fluoro-5-azaspiro[3.4]octane-7-carboxamide], the IC50 with MM.1S cells (Homo sapiens, MM1.S, 240 h) was determined as 1.8 nM; with H3K9AC (HT1080 cells) (H3K9AC sandwich ELISA) it was 0.6 nM. Further, the Ki at KAT2A is 0.02 nM.

As for `CC1(C)C[C@](F)(C(=O)N[C@@H]2CC[C@@H](Oc3ccc(C(C)(C)C(=O)O)cc3-c3cccc(F)c3C3CCC3)C2)CN1` (single isomer, unassigned) [Example A4], the IC50 was determined as 147 nM in the assay on MM.1S cells (Homo sapiens, MM1.S, 240 h) and 76.4 nM with H3K9AC (HT1080 cells) (setting [1]). For the same molecule, the Ki at KAT2A was 4.12 nM.

As to `CC(C)(C(=O)O)c1ccc(O[C@@H]2CC[C@@H](NC(=O)[C@@]3(F)CNC4(CCCC4)C3)C2)c(-c2cccc(F)c2C2CCC2)c1` (single isomer, unassigned) [Example A5], the IC50 in the assay on MM.1S cells (Homo sapiens, MM1.S, 240 h) came to 7560 nM. The Ki at KAT2A stood at 1800 nM.

Turning to `O=C(O)Cc1ccc(O[C@@H]2CC[C@@H](NC(=O)[C@@]3(F)CNC4(CCC4)C3)C2)c(-c2cccc(F)c2C2CCC2)c1` (single isomer, unassigned) [Example A7], the IC50 with MM.1S cells (Homo sapiens, MM1.S, 240 h) is 30.9 nM; in the assay with H3K9AC (HT1080 cells) (setting [1]), 4.45 nM. Also, the Ki at KAT2A was determined as 1.25 nM.

Consider `CC[C@](C)(C(=O)O)c1ccc(O[C@@H]2CC[C@@H](NC(=O)[C@]3(F)CNC4(CCC4)C3)C2)c(-c2cccc(F)c2C2CCC2)c1` (single isomer, unassigned) [Example A9], for which the IC50 in the assay on MM.1S cells came to 135 nM; in the assay on H3K9AC (HT1080 cells) (H3K9AC sandwich ELISA) it was 11.1 nM. In addition, at KAT2A, the Ki worked out at 0.84 nM.

In the case of `CC[C@](C)(C(=O)O)c1ccc(O[C@@H]2CC[C@@H](NC(=O)[C@]3(F)CNC4(CCC4)C3)C2)c(-c2cccc(F)c2C2CCC2)c1` (single isomer, unassigned) [Example A12], the figures for the IC50 with MM.1S cells and in the assay with H3K9AC (HT1080 cells) (H3K9AC sandwich ELISA) were 368 nM and 28.8 nM, respectively. In addition, on KAT2A, the Ki stood at 1.78 nM.

As for `CC1(C)C[C@@](F)(C(=O)N[C@@H]2CC[C@@H](Oc3ccc(C(=O)O)cc3-c3cccc(F)c3C3CCC3)C2)CN1` (single isomer, unassigned) [Example A14], the IC50 with MM.1S cells (Homo sapiens, MM1.S, 240 h) worked out at 157 nM; with H3K9AC (HT1080 cells) (H3K9AC sandwich ELISA), 4.88 nM. Moreover, the Ki on KAT2A worked out at 1.32 nM.

Consider `C[C@H](C(=O)O)c1ccc(O[C@@H]2CC[C@@H](NC(=O)[C@@]3(F)CNC4(CCC4)C3)C2)c(-c2cccc(F)c2C2CCC2)c1` (single isomer, unassigned) [Example A19], for which the IC50 in the assay with MM.1S cells amounted to 431 nM; with H3K9AC (HT1080 cells) (setting [1]), 10 nM. For the same molecule, the Ki on KAT2A worked out at 2.4 nM.

Regarding `C[C@H](C(=O)O)c1ccc(O[C@@H]2CC[C@@H](NC(=O)[C@@]3(F)CNC4(CCC4)C3)C2)c(-c2cccc(F)c2C2CCC2)c1` (single isomer, unassigned) [Example A20], the results for the IC50 with MM.1S cells and in the assay with H3K9AC (HT1080 cells) (H3K9AC sandwich ELISA) were 186 nM and 9.3 nM, respectively. In addition, the Ki on KAT2A was found to be 2.53 nM.

For the molecule `CC(C)c1c(F)cccc1-c1cc(C(C)(C)C(=O)O)ccc1O[C@@H]1CC[C@@H](NC(=O)[C@@]2(F)CNC3(CCC3)C2)C1` (single isomer, unassigned) [Example A21], the values for the concentration for half-maximal inhibition (IC50) in the assay with MM.1S cells and with H3K9AC (HT1080 cells) (H3K9AC sandwich ELISA) were more than 10000 nM and more than 1000 nM, respectively. Moreover, the Ki on KAT2A is more than 99.9 nM.

Consider `CC(C)c1c(F)cccc1-c1cc(C(C)(C)C(=O)O)ccc1O[C@@H]1CC[C@@H](NC(=O)[C@@]2(F)CNC3(CCC3)C2)C1` (single isomer, unassigned) [Example A22], for which the IC50 was 101 nM with MM.1S cells and 4.33 nM in the assay with H3K9AC (HT1080 cells) (H3K9AC sandwich ELISA). In addition, the Ki at KAT2A worked out at 0.34 nM.

With `O=C(O)Cc1ccc(O[C@@H]2CC[C@@H](NC(=O)[C@@]3(F)CNC4(CCCC4)C3)C2)c(-c2cccc(F)c2C2CCC2)c1` (single isomer, unassigned) [Example A25], the IC50 with MM.1S cells (Homo sapiens, MM1.S, 240 h) amounted to 26 nM; with H3K9AC (HT1080 cells) (H3K9AC sandwich ELISA) it was 4.22 nM. Moreover, the Ki at KAT2A came to 0.68 nM.

In the case of `CC(C)(C(=O)O)c1ccc(O[C@@H]2CC[C@@H](NC(=O)[C@@]3(F)CNCC4(CCC4)C3)C2)c(-c2cccc(F)c2C2CCC2)c1` (single isomer, unassigned) [Example A27], the IC50 in the assay on MM.1S cells (Homo sapiens, MM1.S, 240 h) amounted to 26.3 nM; with H3K9AC (HT1080 cells) (H3K9AC sandwich ELISA), 7.6 nM. In addition, the Ki at KAT2A amounted to 0.16 nM.

As for `CC(C)c1ccccc1-c1cc(C(=O)O)ccc1O[C@@H]1CC[C@@H](NC(=O)[C@@]2(F)CNC3(CCCC3)C2)C1` (single isomer, unassigned) [Example A41], the 50% inhibitory concentration (IC50) in the assay on MM.1S cells came to 9.2 nM; in the assay with H3K9AC (HT1080 cells) (H3K9AC sandwich ELISA), 3 nM.
